In US10053422B2, “Compounds for the treatment of mTOR pathway related diseases” (Pitney Pharmaceuticals Pty Limited, priority 2012, dated 2018):
Where two headings read alike, the source gives them in different places.

Legend:
OVCAR-3 cells = assay: SRB cell proliferation assay, OVCAR-3; format: cell-based, human
Description: (§1) Cell proliferation was assessed using the sulforhodamine B (SRB) assay. Cells seeded in 96-well plate (2,000-3,000 cell/well) were treated with MPL (0, 1, 5, 10, 25, 50 and 100 μmol/L) for 72 h. Cells were then fixed, washed and stained with 100 μl of 0.4% (w/v) SRB dissolved in 1% acetic acid. Unbound dye was removed by five washes with 1% acetic acid before air drying. Bound SRB was solubilized with 100 μl of 10 mM Tris base (pH 10.5) and the absorbance read at 570 nm. Exactly the same procedure was used to assess MPL-SO2. Both agents were dissolved in ethanol and diluted with media to give the final concentrations required for cell culture assays.

T47-D cells = assay: SRB cell proliferation assay, T47-D; format: cell-based; conditions: Homo sapiens, T47D
Description: as §1

MDA-MB-231 cells = assay: SRB cell proliferation assay, MDA-MB-231; format: cell-based; conditions: Homo sapiens
Description: as §1

[1] = system: DU-145 prostate cancer cells; assay: SRB cell proliferation assay, DU-145; format: cell-based; conditions: for IC50: Homo sapiens
Description: as §1

U87 cells (glioblastoma) = assay: SRB cell proliferation assay, U87; format: cell-based; conditions: for IC50: Homo sapiens, U-87 MG
Description: as §1

[2] = system: HUVEC (human umbilical vein endothelial cells); assay: SRB cell proliferation assay, HUVEC; format: cell-based
Description: as §1

[3] = system: HEK (Human Embryonic Kidney); assay: SRB cell proliferation assay, HEK; format: cell-based
Description: as §1

3T3 fibroblast = assay: SRB cell proliferation assay, 3T3; format: cell-based; conditions: 3T3, fibroblast (Table 2); read-out: IC50 in suppressing proliferation
Description: as §1

mTOR and p70S6K = assay: Western blot of mTOR and p70S6K phosphorylation in OVCAR-3 cells; format: cell-based, human; conditions: 10 μM MPL for 1, 4 or 24 hours
Description: Western blot analysis of cell lysates prepared from OVCAR-3 cells treated with 10 μM MPL for 1, 4 or 24 hours under cell culture conditions.

[4] = system: NF-κB signal transduction pathway in LPS-stimulated RAW 264.7 cells; assay: NF-κB signal transduction in LPS-stimulated macrophages; format: cell-based
Text: LPS-stimulated RAW 264.7 cells macrophages were used as an in vitro model system for inflammation.

nicotinic receptors = assay: MPL antiproliferative effect after pre-treatment with nicotinic agonists or antagonists; format: cell-based; conditions: MPL 5 μM, 72 h; 30 min pre-treatment
Description: Cells were pre-treated (30 min) with increasing concentrations of nicotine, carbachol or the receptor antagonists, atropine, mecamylamine, tubocurarine, and α-bungarotoxin. MPL (5 μM) was added and left in the cell culture incubator for 72 h. Each drug concentration was tested in quadruplicate and each experiment was repeated twice. Combine values (mean±SEM) are presented as % control.
In brief, MPL and MPL-SO2 were tested in vitro against a wide range of cancer cell-lines with extensively different disease characteristics. For further detailed studies, human ovarian cancer cell lines OVCAR-3 and A2780 were chosen. Additionally, normal human ovarian surface epithelial cells (HOSE) and were cultured in the presence of MPL (0, 5, 10, 25, 50 and 100 μM) for 72 h. Cell viability was assessed using Trypan blue assay (FIG. 9). Similarly, effect of MPL on the growth of normal epithelial, endothelial, embryonic and fetal cells were investigated (FIG. 10) while cell proliferation was assessed using the SRB assay (FIG. 11). Control (vehicle treated) cells were taken to present 100% proliferation and the MPL treated groups are expressed as percentage of control±SEM. Each drug concentration was tested in quadruplicate and each experiment was repeated at least twice. For statistical comparisons, each drug treated group is compared to the control group using Student's t test. […]

[5] = system: Normal cells HOSE, CHO, HEK and HUVEC; assay: Cell viability assay (Trypan blue), normal cells; format: cell-based; conditions: MPL 0, 5, 10, 25 μmol/L, 72 h
Description: Normal cells HOSE, CHO, HEK and HUVEC were cultured in the presence of MPL (0, 5, 10, 25, μmol/L) for 72 h. Effect of MPL on cell viability was assessed using the standard Trypan blue assay. Results are presented as mean±SEM compared to control (100%).
For viability experiments, cells seeded in 6 well plates were exposed to monepantel (MPL) at 0, 1, 10, 50 and 100 μM concentrations for 24, 48 or 72 h. Monepantel (gift by Novartis, Basel, Switzerland) was dissolved in 100% ethanol and then diluted with the cell culture media. At the end of treatment period, cells were washed with PBS, trypsinized and counted using Trypan blue and hemocytometer. All experimental points were set up in quadruplicate and each experiment was performed at least twice.
In brief, MPL and MPL-SO2 were tested in vitro against a wide range of cancer cell-lines with extensively different disease characteristics. For further detailed studies, human ovarian cancer cell lines OVCAR-3 and A2780 were chosen. […] Cell viability was assessed using Trypan blue assay (FIG. 9). Similarly, effect of MPL on the growth of normal epithelial, endothelial, embryonic and fetal cells were investigated (FIG. 10) while cell proliferation was assessed using the SRB assay (FIG. 11). Control (vehicle treated) cells were taken to present 100% proliferation and the MPL treated groups are expressed as percentage of control±SEM. […]

U251 glioma cells = assay: Autophagy (vacuoles), U251; format: cell-based
Text: Concentration-dependent conversion of LC3-I to LC3-II confirms the increasing phenomenon of autophagy in these cells.

## C[C@](C#N)(COc1cc(C#N)ccc1C(F)(F)F)NC(=O)c1ccc(SC(F)(F)F)cc1 [MPL, N-[(1S)-1-Cyano-2-(5-cyano-2-trifluoromethyl-phenoxy)-1-methyl-ethyl]-4-trifluoromethylsulfanyl-benzamide]
OVCAR-3 cells; Homo sapiens, OVCAR-3, ovarian cancer, 72 h in vitro treatment, SRB assay (Table 1), read-out: IC50
  IC50: 6.3 µM
OVCAR-3 cells; OVCAR-3, human epithelial ovarian cancer (Table 3), read-out: IC50 μM OVCAR-3
  IC50: 7.9 ± 0.9 µM
OVCAR-3 cells; results of Table 3
  potency of MPL-(R) compared with MPL-(S): equipotent
T47-D cells; breast cancer (Table 2), read-out: IC50 in suppressing proliferation
  IC50: 5.3 ± 0.003 µM
T47-D cells; breast cancer, 72 h, SRB assay (Table 1), read-out: IC50
  IC50: 5.7 µM
MDA-MB-231 cells; MDA-MB-231, breast cancer (Table 2), read-out: IC50 in suppressing proliferation
  IC50: 23.8 ± 0.2 µM
MDA-MB-231 cells; MDA-MB-231, breast cancer, 72 h, SRB assay (Table 1), read-out: IC50
  IC50: 24 µM
[1]; DU-145, prostate cancer (Table 2), read-out: IC50 in suppressing proliferation
  IC50: 23 µM
[1]; DU-145, prostate cancer, 72 h, SRB assay (Table 1), read-out: IC50
  IC50: 23.5 µM
[1]; chemo-resistant, androgen insensitive DU 145
  effect on DU 145 cells: very effective
U87 cells (glioblastoma); U87, glioblastoma, 72 h, SRB assay (Table 1), read-out: IC50
  IC50: 26.2 µM
U87 cells (glioblastoma); U87, glioma (Table 2), read-out: IC50 in suppressing proliferation
  IC50: 18 µM
U87 cells (glioblastoma); highly resistant to chemotherapy
  replication of U87 cells: profoundly suppressed
[2]; HUVEC = human umbilical vein endothelial cells (Table 3), read-out: IC50 μM HUVEC
  IC50: 65 µM
[2]; Homo sapiens, HUVEC (Table 2), read-out: IC50 in suppressing proliferation
  IC50: 87 µM
[2]; Homo sapiens, HUVEC, 72 h, SRB assay (Table 1), read-out: IC50
  IC50: 87.8 µM
[3]; HEK (Table 2), read-out: IC50 in suppressing proliferation
  IC50: 34.6 ± 0.86 µM
[3]; HEK, 72 h, SRB assay (Table 1), read-out: IC50
  IC50: 50.5 µM
3T3 fibroblast
  IC50: 12.4 ± 0.37 µM
mTOR and p70S6K
  phosphorylation [activation] of mTOR and p70S6K: inhibition of phosphorylation
[4]
  IKK phosphorylation: inhibitory effect
  IL-6 expression: down regulation of IL-6 expression
  IκB-α phosphorylation: inhibitory effect
  NF-κB p65 phosphorylation: inhibitory effect
  NO expression: abrogates NO expression
  TGF-β expression: down regulation of TGF-β expression
[4]; immunocytochemistry and Western blot
  NF-κB activation: decreased NF-κB activation
Nicotinic receptors
  MPL-induced inhibition after pre-treatment with nicotinic agonists or antagonists: neither positively nor negatively affected
[5]
  viability of normal cells: cancer cell orientated
U251 glioma cells
  formation of autophagy (vacuoles): concentration-dependent formation of autophagy
